# Measurements taken from US20080045592A1, “Method of inhibiting growth and proliferation of listeria monocytogenes using levulinate” (Utah State University, priority 2006, published 2008).
# Like-named read-outs stand apart in the source and are kept apart here.
# What was measured:
# [1] = test system: 5 strain cocktail of L. monocytogenes; conditions: for inhibiting growth of L. monocytogenes, compared with sodium lactate alone or sodium lactate combined with sodium diacetate: 2° C., comparators at 2%; for growth of L. monocytogenes: entire 12 weeks of storage at 2° C.
# [2] = test system: pathogenic bacteria (including, but not limited to Listeria monocytogenes); conditions: 2% applied at 54° C. to carcass tissues, stored 4 to 8° C. for 16 weeks
# Experimental: This experiment tests the extent of residual anti-pathogenic activity of levulinic acid (2%) topically applied to carcasses by dipping, spraying, or washing as compared to lactic acid (2%) or acetic acid (2%). Briefly, levulinic acid, lactic acid and acetic acid are independently applied at 54° C. to samples of carcass tissues from beef, pork, lamb, and poultry (or any other species) by topical application. Samples are inoculated with pathogenic bacteria (including, but not limited to Listeria monocytogenes), vacuum packaged, and stored (4 to 8° C.) for 16 weeks. Pathogen counts are determined at 0, 2, 4, 8, 12, and 16 weeks.
# [3] = test system: pathogenic bacteria including, but not limited to, Listeria monocytogenes; conditions: 2% applied at 54° C. to carcass tissue, stored at 4° C. for 12 hours
# Experimental: This experiment tests the extent of decontamination achieved by topical application of levulinic acid to carcass meats as compared to lactic and acetic acids. Briefly, carcass tissues samples from beef, pork, lamb, and poultry (or any other species) are inoculated with pathogenic bacteria including, but not limited to, Listeria monocytogenes. Levulinic acid (2%), lactic acid (2%), and acetic acid (2%) are independently applied at 54° C. to individual meat samples by washing, dipping, or spraying. Samples are vacuum packaged and stored at 4° C. for 12 hours, and pathogen counts are determined.
# [4] = test system: pathogenic bacteria (including, but not limited to, Listeria monocytogenes); conditions: 0.5, 1.0, 2.0% applied at temperatures greater than 54° C. (68, 77° C.); comparators 2% at 54° C.
# Experimental: Samples are vacuum packaged and stored at 4° C. for 12 hours, and pathogen counts are determined.
# [5] = test system: cocktail of 5 pathogenic strains of L. monocytogenes; conditions: bologna slices surface contacted with 1 to 3% solutions, stored at 4° C. for 16 weeks
# Excerpt: This experiment tests the residual anti-Listeria activity imparted by topical application of levulinate to ready-to-eat meat product. In this experiment, levulinic acid is topically applied to a ready-to-eat meat product, and residual anti-Listeria activity followed in a post-treatment challenge. Briefly, bologna slices are surface contacted (spray, wash, or dips) with solutions of 1 to 3% levulinic […] acid. The slices are inoculated with a cocktail of 5 pathogenic strains of L. monocytogenes. Samples are vacuum packaged and stored at 4° C. for 16 weeks. Pathogen counts are determined at 0, 2, 4, 8, 12 and 16 weeks.
# [6] = test system: pathogenic bacteria (including, but not limited to, Listeria monocytogene); conditions: addition or application to any food, stored at 4 to 8° C. for up to 16 weeks
# Experimental: Pathogen counts are determined at 0, 2, 4, 8, 12, and 16 weeks.
# [7] = test system: 5 strain cocktail of L. monocytogenes; conditions: for inhibition of growth of L. monocytogenes, compared with sodium lactate alone or sodium lactate combined with sodium diacetate: 2° C., comparators at 2%; for growth of L. monocytogenes: entire 12 weeks of storage at 2° C.
smiles,measurement,setting,value
CC(=O)CCC(=O)O [levulinate],peak levels of growth of L. monocytogenes,"[1]; 1% in turkey product, after 12 weeks of storage at 2° C.",greatly inhibited
same,growth of L. monocytogenes compared to the control,"[1]; 1% in turkey product, vacuum packaged, stored at 2° C., two trials averaged",delayed growth
"CC(=O)CCC(=O)O [levulinic acid, 4-oxopentanoic acid]",residual anti-pathogenic activity as compared to lactic acid and acetic acid,[2],equal or greater residual anti-pathogenic activity
same,decontamination of pathogens as compared to lactic acid and acetic acid,[3],equal or greater decontamination
same,initial surface decontamination activity against pathogenic bacteria as compared to fixed concentrations of lactic acid or acetic acid at a fixed temperature,[4],significant initial surface decontamination activity
same,proliferation of Listeria bacteria in treated meat samples,[5],significant decrease
same,initial decontamination and residual activity against pathogenic bacteria,[6],significant initial decontamination and residual activity
CC(=O)CCC(=O)[O-].[Na+] [sodium levulinate],"inhibiting growth of L. monocytogenes, compared with sodium lactate alone or sodium lactate combined with sodium diacetate",[1]; 2% in turkey product,more effective
same,growth of L. monocytogenes,[1]; 2% in turkey product,completely inhibited growth
same,"inhibiting growth of L. monocytogenes, compared with sodium lactate alone or sodium lactate combined with sodium diacetate",[1]; 3% in turkey product,more effective
same,growth of L. monocytogenes,[1]; 3% in turkey product,completely inhibited growth
same,"inhibition of growth of L. monocytogenes, compared with sodium lactate alone or sodium lactate combined with sodium diacetate",[7]; 1% in bologna,as inhibitory
same,growth of L. monocytogenes,[7]; 1% in bologna,completely inhibited growth
same,"inhibition of growth of L. monocytogenes, compared with sodium lactate alone or sodium lactate combined with sodium diacetate",[7]; 2% in bologna,as inhibitory
same,growth of L. monocytogenes,[7]; 2% in bologna,completely inhibited growth
same,"inhibition of growth of L. monocytogenes, compared with sodium lactate alone or sodium lactate combined with sodium diacetate",[7]; 3% in bologna,as inhibitory
same,growth of L. monocytogenes,[7]; 3% in bologna,completely inhibited growth
